Values of other authors as cited in patent publication US20040229960A1, “Compositions and methods of administering tubulin binding agents for the treatment of ocular diseases” (priority 2001, published 2004).

Details: cited from earlier work

In the case of `COc1ccc(/C=C\c2cc(OC)c(OC)c(OC)c2)cc1O` [CA4, combretastatin A4], the Solubility in water is given as “essentially insoluble in water”.
